Like-named read-outs stand apart in the source and are kept apart here.
Legend:
Assay in all cases: Post-emergence action, greenhouse pot test, visual scoring
Format in all cases: in vivo
[1] = system: Abuthilon theophrasti (ABUTH); conditions: Abutilon theophrasti, ABUTH, read-out: % activity found; for inhibition at 4 g/ha: 4 g of ai/ha; for inhibition at 12 g/ha: 12 g of ai/ha
Protocol: (§1) Seeds or rhizome pieces of mono- and dicotyledonous harmful and useful plants were placed in peat pots (diameter 4 cm) filled with sandy loam and then covered with soil. The pots were kept in a greenhouse under optimum conditions. In addition, harmful plants encountered in paddy rice cultivation were cultivated in pots with a water level 2 cm above the soil surface.
(§2) About three weeks after the start of the cultivation, the test plants were treated at the 2- to 3-leaf stage. The herbicides, formulated as powder or liquid concentrates, were, either alone or in the combinations according to the invention, sprayed in various dosages on to the green parts of the plants using an application rate of 600 l of water/ha (converted). For further cultivation of the plants, the pots were then again kept under optimum conditions in a greenhouse.
(§3) The visual scoring of the herbicidal effects was carried out in intervals up to 21 days after the treatment. Scoring was carried out in percent in comparison to the untreated control plants. 0%=no herbicidal activity, 100%=complete herbicidal activity=complete kill.
(§4) The percentages from the treatments with the herbicides alone (=individual application) and with the combinations according to the invention (=mixtures) were employed to calculate interactions using the method of Colby. When the observed efficacies of the mixtures exceed the formal sum of the values of the tests with individual applications, they also exceed the expected value according to Colby, which is calculated using the formula below (cf. S. R. Colby; in Weeds 15 (1967) pp. 20 to 22):
(§5) • A, B=activity of components A and B in percent at a dosage of a and b g of ai/ha (=gramm of active substance per hectare), respectively. • E=expected value in % at a dosage of a+b g of ai/ha.

[2] = system: Alopecurus myosuroides (ALOMY); conditions: 504 h, ALOMY, 21 DAT, read-out: % activity found
Protocol: as §1, §2, §3, §4, §5

[3] = system: Amaranthus retroflexus (AMARE); conditions: AMARE, read-out: % activity found; for inhibition at 12 g/ha: 12 g of ai/ha
Protocol: as §1, §2, §3, §4, §5

Avena fatua (AVEFA) = conditions: AVEFA, read-out: % activity found; for inhibition at 4 g/ha: 4 g of ai/ha; for inhibition at 12 g/ha: 12 g of ai/ha
Protocol: as §1, §2, §3, §4, §5

[4] = system: Cyperus esculentus (CYPES); conditions: CYPES, 21 DAT
Protocol: as §1, §2, §3, §4, §5

[5] = system: Fallopia (ex Polygonum) convolvulus (POLCO); conditions: POLCO, read-out: % activity found; for inhibition at 4 g/ha: 4 g of ai/ha; for inhibition at 12 g/ha: 12 g of ai/ha
Protocol: as §1, §2, §3, §4, §5

[6] = system: Lolium multiflorum (LOLMU); conditions: read-out: % activity found; for inhibition at 4 g/ha: 4 g of ai/ha; for inhibition at 12 g/ha: 12 g of ai/ha
Protocol: as §1, §2, §3, §4, §5

[7] = system: Matricaria inodora (MATIN); conditions: Tripleurospermum inodorum, MATIN, read-out: % activity found; for inhibition at 4 g/ha: 4 g of ai/ha
Protocol: as §1, §2, §3, §4, §5

Oryza sativa (ORYSA) = conditions: ORYSA, read-out: % activity found; for inhibition at 12 g/ha: 12 g of ai/ha
Protocol: as §1, §2, §3, §4, §5

[8] = system: Pharbitis purpurea (PHBPU); conditions: Ipomoea purpurea, PHBPU, read-out: % activity found; for inhibition at 4 g/ha: 4 g of ai/ha; for inhibition at 12 g/ha: 12 g of ai/ha
Protocol: as §1, §2, §3, §4, §5

[9] = system: Triticum aestivum (TRZAS); conditions: TRZAS, read-out: % activity found; for inhibition at 4 g/ha: 4 g of ai/ha; for inhibition at 12 g/ha: 12 g of ai/ha
Protocol: as §1, §2, §3, §4, §5

Veronica persica (VERPE) = conditions: VERPE, read-out: % activity found; for inhibition at 12 g/ha: 12 g of ai/ha
Protocol: as §1, §2, §3, §4, §5

Viola tricolor (VIOTR) = conditions: VIOTR, read-out: % activity found; for inhibition at 4 g/ha: 4 g of ai/ha; for inhibition at 12 g/ha: 12 g of ai/ha
Protocol: as §1, §2, §3, §4, §5

Zea mays (ZEAMX) = conditions: ZEAMX, read-out: % activity found; for inhibition at 4 g/ha: 4 g of ai/ha; for inhibition at 12 g/ha: 12 g of ai/ha
Protocol: as §1, §2, §3, §4, §5

`COc1nc(OC)nc(C(=O)c2cccc(F)c2N(C)S(=O)(=O)C(F)F)n1` [A-1] gave an inhibition at 4 g/ha ([1]; 240 h, 10 DAT) of 70%, an inhibition at 12 g/ha ([1]; 240 h, 10 DAT) of 70% and an inhibition at 4 g/ha ([1]; 504 h, 21 DAT) of 85%. The inhibition at 12 g/ha ([1]; 504 h, 21 DAT) was 85%, the inhibition at 4 g/ha ([2]; 4 g of ai/ha) was 40% and the inhibition at 12 g/ha ([2]; 12 g of ai/ha) was 50%. For the same compound, the inhibition at 12 g/ha ([3]; 240 h, 10 DAT) was 70%, the inhibition at 4 g/ha ([3]; 504 h, 21 DAT, 4 g of ai/ha) was 70% and the inhibition at 12 g/ha ([3]; 504 h, 21 DAT) was 75%. The inhibition at 4 g/ha (Avena fatua (AVEFA); 240 h, 10 DAT) was 40%, the inhibition at 12 g/ha (Avena fatua (AVEFA); 240 h, 10 DAT) was 50% and the inhibition at 4 g/ha (Avena fatua (AVEFA); 504 h, 21 DAT) was 10%. The inhibition at 12 g/ha (Avena fatua (AVEFA); 504 h, 21 DAT) was 30%, the “(7) % activity found” value ([4]; (5) dose of A-1 4, alone) was 80% and the “(7) % activity found” value ([4]; (5) dose of A-1 12, alone) was 80%. The inhibition at 4 g/ha ([4]; Cyperus esculentus, 504 h, 4 g of ai/ha, read-out: % activity found) was 80%, the inhibition at 12 g/ha ([4]; Cyperus esculentus, 504 h, 12 g of ai/ha, read-out: % activity found) was 80% and the inhibition at 4 g/ha ([5]; 240 h, 10 DAT) was 70%. For the same compound, the inhibition at 12 g/ha ([5]; 240 h, 10 DAT) was 70%, the inhibition at 4 g/ha ([5]; 504 h, 21 DAT) was 75% and the inhibition at 12 g/ha ([5]; 504 h, 21 DAT) was 70%. For the same compound, the inhibition at 4 g/ha ([6]; 240 h, 10 DAT) was 0%, the inhibition at 12 g/ha ([6]; 240 h, 10 DAT) was 10% and the inhibition at 4 g/ha ([6]; 504 h, 21 DAT) was 0%. For the same compound, the inhibition at 12 g/ha ([6]; 504 h, 21 DAT) was 10%, the inhibition at 4 g/ha ([7]; 240 h, 10 DAT) was 60% and the inhibition at 4 g/ha ([7]; 504 h, 21 DAT) was 50%. It also gave an inhibition at 12 g/ha ([7]; 504 h, 21 DAT, 12 g of ai/ha) of 60%, an inhibition at 12 g/ha (Oryza sativa (ORYSA); 240 h, 10 DAT) of 10% and an inhibition at 4 g/ha (Oryza sativa (ORYSA); 504 h, 21 DAT, 4 g of ai/ha) of 0%. The inhibition at 12 g/ha (Oryza sativa (ORYSA); 504 h, 21 DAT) was 10%, the inhibition at 4 g/ha ([8]; 240 h, 10 DAT) was 60% and the inhibition at 12 g/ha ([8]; 240 h, 10 DAT) was 60%. The inhibition at 4 g/ha ([8]; 504 h, 21 DAT) was 60%, the inhibition at 12 g/ha ([8]; 504 h, 21 DAT) was 65% and the inhibition at 4 g/ha ([9]; 240 h, 10 DAT) was 0%. It also gave an inhibition at 12 g/ha ([9]; 240 h, 10 DAT) of 0%, an inhibition at 4 g/ha ([9]; 504 h, 21 DAT) of 0% and an inhibition at 12 g/ha ([9]; 504 h, 21 DAT) of 0%. For the same compound, the inhibition at 12 g/ha (Veronica persica (VERPE); 240 h, 10 DAT) was 60%, the inhibition at 4 g/ha (Veronica persica (VERPE); 504 h, 21 DAT, 4 g of ai/ha) was 30% and the inhibition at 12 g/ha (Veronica persica (VERPE); 504 h, 21 DAT) was 40%. For the same compound, the inhibition at 4 g/ha (Viola tricolor (VIOTR); 240 h, 10 DAT) was 20%, the inhibition at 12 g/ha (Viola tricolor (VIOTR); 240 h, 10 DAT) was 20% and the inhibition at 4 g/ha (Viola tricolor (VIOTR); 504 h, 21 DAT) was 0%. The inhibition at 12 g/ha (Viola tricolor (VIOTR); 504 h, 21 DAT) was 10%, the inhibition at 4 g/ha (Zea mays (ZEAMX); 240 h, 10 DAT) was 0% and the inhibition at 12 g/ha (Zea mays (ZEAMX); 240 h, 10 DAT) was 0%. It also gave an inhibition at 4 g/ha (Zea mays (ZEAMX); 504 h, 21 DAT) of 0% and an inhibition at 12 g/ha (Zea mays (ZEAMX); 504 h, 21 DAT) of 0%.
